In publication PMC12300992, “A Machine Learning Platform for Isoform-Specific Identification and Profiling of Human Carbonic Anhydrase Inhibitors” (Pharmaceuticals, 2025):

How the values were obtained:
[1] = tested on: Z mutant (Glu342Lys) of α1-antitrypsin; set-up: method as in PMID 17918823; settings: cited from earlier work
bacterial DNA gyrase B = tested on: bacterial DNA gyrase B; set-up: method as in PMID 20045642; settings: cited from earlier work
hCA II = hCA II (Homo sapiens, UniProt P00918); assay: CO2 hydrase stopped-flow inhibition assay, hCA II; settings: for experimental activity class hCA II: Table S2, Ki threshold of 1 µM
Procedure: (§1) The ionic strength was maintained at a constant using 0.1 M Na2SO4 or NaClO4, as these anions are non-inhibitory at the concentration employed. […] Inhibitor stock solutions were prepared at a concentration of 10 mM in 1:1, v/v DMSO/water mixture and were subsequently diluted up to 0.01 nM in the assay buffer. To determine the inhibition constant (Ki), at least seven different inhibitor concentrations were tested. The enzyme and the inhibitor were pre-incubated for 15 min to allow the complete formation of the enzyme-inhibitor complex. Each inhibitor concentration was tested in triplicate, and the values reported throughout the study represent the mean of these replicates. […] These enzyme concentrations were measured by titration with ethoxzolamide and spectrophotometrically for CA I and II.

hCA I = hCA I (Homo sapiens, UniProt P00915); assay: CO2 hydrase stopped-flow inhibition assay, hCA I; settings: for experimental activity class hCA I: Table S2, Ki threshold of 1 µM
Sequence of hCA I (P00915 whole entry): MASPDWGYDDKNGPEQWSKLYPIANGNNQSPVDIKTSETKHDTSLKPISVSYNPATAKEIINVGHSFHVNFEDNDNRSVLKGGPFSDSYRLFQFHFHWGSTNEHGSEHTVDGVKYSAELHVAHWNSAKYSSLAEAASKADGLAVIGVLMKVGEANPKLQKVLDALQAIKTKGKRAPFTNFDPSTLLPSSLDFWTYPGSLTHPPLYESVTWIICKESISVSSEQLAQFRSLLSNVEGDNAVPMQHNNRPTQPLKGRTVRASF
Procedure: as §1

α-amylase = tested on: α-amylase; set-up: method as in PMID 26395057; settings: cited from earlier work
hCA IX = hCA IX (Homo sapiens, UniProt Q16790); assay: CO2 hydrase stopped-flow inhibition assay, hCA IX; settings: for experimental activity class hCA IX: Table S2, Ki threshold of 1 µM
Procedure: as §1

hCA XII = hCA XII (Homo sapiens, UniProt O43570); assay: CO2 hydrase stopped-flow inhibition assay, hCA XII; settings: for experimental activity class hCA XII: Table S2, Ki threshold of 1 µM
Sequence of hCA XII (O43570 25-354): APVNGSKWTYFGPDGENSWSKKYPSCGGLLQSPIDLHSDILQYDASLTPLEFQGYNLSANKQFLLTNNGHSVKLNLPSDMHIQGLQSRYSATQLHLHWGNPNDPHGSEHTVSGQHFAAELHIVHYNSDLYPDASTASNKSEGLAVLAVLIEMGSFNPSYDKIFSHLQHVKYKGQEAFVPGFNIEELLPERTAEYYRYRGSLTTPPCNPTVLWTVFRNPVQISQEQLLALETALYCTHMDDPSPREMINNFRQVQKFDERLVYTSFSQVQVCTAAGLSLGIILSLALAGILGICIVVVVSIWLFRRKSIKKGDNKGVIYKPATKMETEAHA
Procedure: as §1

Compound	effect on rate of polymerization of Z α1-antitrypsin [1]	bacterial DNA gyrase B inhibition (bacterial DNA gyrase B)	Ki (hCA II) [nM]	experimental activity class hCA II (hCA II)	Ki (hCA I) [nM]	experimental activity class hCA I (hCA I)	inhibitory activity against α-amylase (α-amylase)	Ki (hCA IX) [nM]	experimental activity class hCA IX (hCA IX)	Ki (hCA XII) [nM]	experimental activity class hCA XII (hCA XII)	selectivity for hCA II over hCA I (hCA II; hCA II vs hCA I)
NS(=O)(=O)c1ccc(Nc2nc(-c3ccc(O)cc3O)cs2)cc1 [Compound 12]	reduce the rate of polymerization	inhibitor	151	Active	1080	Inactive	promising inhibitory activity	313	Active	648	Active	
NS(=O)(=O)c1ccc(CCNC(=O)C/C=C2/NC(=O)c3c(sc4c3CCCC4)N2)cc1 [Compound 2]			11.6	Active	1020	Inactive		713	Active	30.6	Active	
CCOc1ccccc1C(=O)Nc1nc2ccc(S(N)(=O)=O)cc2s1 [Compound 11]			16.4	Active	666	Active		73.7	Active	49.4	Active	
O=S(=O)(Nc1cccc(C(F)(F)F)c1)c1cc(Cl)ccc1Cl [Compound 10]			> 100000	Inactive	31600	Inactive		> 100000	Inactive	> 100000	Inactive	
NS(=O)(=O)c1ccc(OCCn2ccnc2)cc1 [Compound 4]			6.8	Active	36.2	Active		2520	Inactive	603	Active	approximately five times more active
O=C(Nn1cnnc1)c1cccc(S(=O)(=O)Nc2cc(C(F)(F)F)ccc2Cl)c1 [Compound 3]			> 100000	Inactive	> 100000	Inactive		> 100000	Inactive	> 100000	Inactive	
